Data published in ChEMBL document CHEMBL1124835, “Structure-activity relationships of antineoplastic agents in multidrug resistance” (J Med Chem, 1990).
Numbered stars: 1 amine (or outer) side, 2 acyl side, 3 side chain; on linkers, the order of the positions; unused ones are H or OH. Bridge positions count the residues as written; N and C are the ends. Square brackets hold non-standard residues; d marks the D form. Peptide text beside a SMILES is read from it. I, II: the chains in the order shown. Actinocin(1to9) = Cc1c2oc3c(C)ccc(C(=O)[*:2])c3nc-2c(C(=O)[*:1])c(N)c1=O; NMeV = CN[C@H](C(=O)O)C(C)C; Sar = CNCC(=O)O

Legend:
[1] = system: L1210
Description: Cross resistance profile versus L1210/R71 cells.

[2] = physchem; conditions: octanol/water, pH 7.4
[3] = system: CHRC5 cell line; assay type: functional, Cricetulus griseus
Description: Effect on collateral sensitivity of CHRC5 cells to local anesthetics/steroids.

[4] = system: CHO
Description: Effect on cross resistance of CHO cells resistant to colchicine (CHRC5)

[5] = system: CCRF-CEM; test: Effect on cross resistance of CCRF-CEM cells resistant to vincristine.; assay type: functional, Homo sapiens
[6] = system: L1210; test: Cross resistance to the compound expressed as log of ratio of molar concentration of drug inducing 50% inhibition of growth in murine leukemia L1210/R71 and L1210/0 cells; assay type: functional, Mus musculus

| SMILES | Log CR [1] | logD [2] | also measured |
| --- | --- | --- | --- |
| CC1(C)N=C(N)N=C(N)N1c1cccc(COc2cccc(-c3ccccc3)c2)c1 | 1.22 | 0.69 |  |
| CCCCCCCCCCCCc1cccc(N2C(N)=NC(N)=NC2(C)C)c1 | 0.52 | 3.41 |  |
| CC1(C)N=C(N)N=C(N)N1c1cccc(Br)c1 | 2.06 | -2.14 |  |
| CC1(C)N=C(N)N=C(N)N1c1cccc(O)c1 | 1.86 | -3.67 |  |
| O=[N+]([O-])c1cccc2ccc[n+]([O-])c12 |  | 1.02 |  |
| CC(=O)[C@H]1CC[C@H]2[C@@H]3CCC4CC(=O)CC[C@]4(C)[C@H]3CC[C@]12C (stereo partly drawn) |  | 3.99 | Log sensitivity [3]: 1 |
| CC1(C)N=C(N)N=C(N)N1c1ccccc1 | 2.18 | -3 |  |
| CC(=O)c1cccc(N2C(N)=NC(N)=NC2(C)C)c1 | 2.2 | -3.55 |  |
| N[C@@H](Cc1ccc(N(CCCl)CCCl)cc1)C(=O)O |  | -0.52 | Log CR [4]: 1.18 |
| C[N+]1(C)CCC(OC(=O)C(c2ccccc2)c2ccccc2)CC1.[I-] [4-DAMP] | 1.63 | 2.64 |  |
| Nc1ncn([C@@H]2O[C@H](CO)[C@@H](O)[C@H]2O)c(=O)n1 [AZACITIDINE] | 1.54 | -2.17 |  |
| O=c1[nH]c(=O)n([C@H]2C[C@H](O)[C@@H](CO)O2)cc1Br [BROXURIDINE] |  | -0.29 |  |
| O=C(O)CCCc1ccc(N(CCCl)CCCl)cc1 [CHLORAMBUCIL] |  | 1.47 | Log CR [4]: 0.3 |
| COc1cc2c(c(OC)c1OC)-c1ccc(OC)c(=O)cc1[C@@H](NC(C)=O)CC2 [COLCHICINE] |  | 1.03 | Log CR [4]: 2.26; Log CR [5]: 1.08 |
| O=P1(N(CCCl)CCCl)NCCCO1 (stereo not drawn) [CYCLOPHOSPHAMIDE ANHYDROUS] |  | 0.63 | Log sensitivity [3]: 0.52 |
| C=C1[C@@H](C)[C@H]2[C@H](Cc3ccccc3)NC(=O)[C@]23OC(=O)/C=C/[C@H](O)CCC[C@@H](C)C/C=C/[C@H]3[C@@H]1O [CYTOCHALASIN B] |  | 3.37 | Log CR [4]: 1.04 |
| Cc1c2oc3c(C)ccc(C(=O)N[C@@H]4C(=O)N[C@H](C(C)C)C(=O)N5CCC[C@H]5C(=O)N(C)CC(=O)N(C)[C@@H](C(C)C)C(=O)O[C@@H]4C)c3nc-2c(C(=O)N[C@@H]2C(=O)N[C@H](C(C)C)C(=O)N3CCC[C@H]3C(=O)N(C)CC(=O)N(C)[C@@H](C(C)C)C(=O)O[C@@H]2C)c(N)c1=O [DACTINOMYCIN] (I: T[dV]P[Sar][NMeV] / II: T[dV]P[Sar][NMeV]; ester I:1-I:C, II:1-II:C; linker I:N-II:N via Actinocin(1to9)) | 0.12 | 3.21 |  |
| COc1cccc2c1C(=O)c1c(O)c3c(c(O)c1C2=O)C[C@@](O)(C(C)=O)C[C@@H]3O[C@H]1C[C@H](N)[C@H](O)[C@H](C)O1 [DAUNORUBICIN] |  |  | Log CR [5]: 1.2 |
| CN[C@H]1CCc2cc(OC)c(OC)c(OC)c2-c2ccc(OC)c(=O)cc21 [DEMECOLCINE] |  | 1.37 | Log CR [4]: 1.2 |

| SMILES | Log CR [1] | logD [2] | also measured |
| --- | --- | --- | --- |
| COc1cccc2c1C(=O)c1c(O)c3c(c(O)c1C2=O)C[C@@](O)(C(=O)CO)C[C@@H]3O[C@H]1C[C@H](N)[C@H](O)[C@H](C)O1 [DOXORUBICIN] |  | 0.1 | Log CR [4]: 1.4; Log CR [5]: 1.46 |
| CC[C@H]1OC(=O)[C@H](C)[C@@H](O[C@H]2C[C@@](C)(OC)[C@@H](O)[C@H](C)O2)[C@H](C)[C@@H](O[C@@H]2O[C@H](C)C[C@H](N(C)C)[C@H]2O)[C@](C)(O)C[C@@H](C)C(=O)[C@H](C)[C@@H](O)[C@]1(C)O [ERYTHROMYCIN] |  | 1.26 | Log CR [4]: 0.7 |
| O=c1[nH]cc(F)c(=O)[nH]1 [FLUOROURACIL] | -0.04 | -0.89 | Log CR [4]: 0 |
| Nc1n[nH]c(N)n1 [GUANAZOLE] | 0.08 | -1.61 |  |
| CC[n+]1c(-c2ccccc2)c2cc(N)ccc2c2ccc(N)cc21.[Br-] [HOMIDIUM BROMIDE] |  | 1.15 | Log CR [4]: 1.04 |
| NC(=O)NO [HYDROXYUREA] | 0.3 | -1.27 |  |
| COc1cc2cc(c1Cl)N(C)C(=O)C[C@H](OC(=O)[C@H](C)N(C)C(C)=O)[C@]1(C)O[C@H]1[C@H](C)[C@@H]1C[C@@](O)(NC(=O)O1)[C@H](OC)/C=C/C=C(\C)C2 [MAYTANSINE] | 1.23 |  | Log CR [5]: 2.85 |
| Cc1nc(N)nc(N)c1-c1ccc(Cl)c(Cl)c1 [METOPRINE] |  | 2.56 | Log CR [6]: 1.7 |
| COc1ccc(OC)c(Cc2cnc3nc(N)nc(N)c3c2C)c1 [PIRITREXIM] |  | 1.77 | Log CR [6]: 1.89 |
| CO[C@H](C(=O)[C@@H](O)[C@@H](C)O)[C@@H]1Cc2cc3cc(O[C@H]4C[C@@H](O[C@H]5C[C@@H](O)[C@H](O)[C@@H](C)O5)[C@H](O)[C@@H](C)O4)c(C)c(O)c3c(O)c2C(=O)[C@H]1O[C@H]1C[C@@H](O[C@H]2C[C@@H](O[C@H]3C[C@](C)(O)[C@H](O)[C@@H](C)O3)[C@@H](O)[C@@H](C)O2)[C@H](O)[C@@H](C)O1 [PLICAMYCIN] |  | -0.25 |  |
| CO[C@H](C(=O)[C@@H](O)[C@@H](C)O)[C@@H]1Cc2cc3cc(O[C@H]4C[C@@H](O[C@@H]5C[C@@H](O)[C@H](O)[C@@H](C)O5)[C@H](O)[C@@H](C)O4)c(C)c(O)c3c(O)c2C(=O)[C@H]1O[C@H]1C[C@@H](O[C@@H]2C[C@@H](O)[C@@H](O[C@@H]3C[C@](C)(O)[C@H](O)[C@@H](C)O3)[C@@H](C)O2)[C@H](O)[C@@H](C)O1 [PLICAMYCIN] | 0.66 |  |  |
| COc1ccc(C[C@H](N)C(=O)N[C@H]2[C@@H](O)[C@H](n3cnc4c(N(C)C)ncnc43)O[C@@H]2CO)cc1 [PUROMYCIN] | 1.82 | 0.86 | Log CR [4]: 2.02 |
| CC/C(=C(\c1ccccc1)c1ccc(OCCN(C)C)cc1)c1ccccc1 [TAMOXIFEN] | 0.59 |  |  |
| S=P(N1CC1)(N1CC1)N1CC1 [THIOTEPA] |  | 0.53 | Log CR [4]: 0 |
| COc1cc(NCc2ccc3nc(N)nc(N)c3c2C)cc(OC)c1OC [TRIMETREXATE] |  | 0.84 | Log CR [6]: 1.75 |
| CC(C)[C@@H]1NC(=O)[C@H](C)OC(=O)[C@@H](C(C)C)NC(=O)[C@@H](C(C)C)OC(=O)[C@H](C(C)C)NC(=O)[C@H](C)OC(=O)[C@@H](C(C)C)NC(=O)[C@@H](C(C)C)OC(=O)[C@H](C(C)C)NC(=O)[C@H](C)OC(=O)[C@@H](C(C)C)NC(=O)[C@@H](C(C)C)OC1=O [VALINOMYCIN] | 0.59 | 3.24 |  |
| CC[C@]1(O)C[C@@H]2CN(CCc3c([nH]c4ccccc34)[C@@](C(=O)OC)(c3cc4c(cc3OC)N(C)[C@H]3[C@@](O)(C(=O)OC)[C@H](OC(C)=O)[C@]5(CC)C=CCN6CC[C@]43[C@@H]65)C2)C1 [VINBLASTINE] |  |  | Log CR [5]: 1.28 |
| CC[C@]1(O)C[C@H]2CN(CCc3c([nH]c4ccccc34)[C@@](C(=O)OC)(c3cc4c(cc3OC)N(C=O)[C@H]3[C@@](O)(C(=O)OC)[C@H](OC(C)=O)[C@]5(CC)C=CCN6CC[C@]43[C@@H]65)C2)C1 [VINCRISTINE] |  | 2.57 | Log CR [5]: 2.76 |
| CC[C@]1(O)C[C@@H]2CN(CCc3c([nH]c4ccccc34)[C@@](C(=O)OC)(c3cc4c(cc3OC)N(C)[C@H]3[C@@](O)(C(N)=O)[C@H](O)[C@]5(CC)C=CCN6CC[C@]43[C@@H]65)C2)C1 [VINDESINE] |  | 0.67 | Log CR [5]: 3 |
